Data published in US20050118290A1, “Compositions and method for treatment of steroid/nuclear receptor-mediated diseases” (University of Singapore, priority 2003, published 2005).

Experiments:
human androgen receptor = target: T1, human androgen receptor (Homo sapiens, UniProt P10275); experiment: AR (ARE)2-Luc luciferase reporter gene assay in HeLa cells; format: cell-based
T1 construct: expressed in transfected cells; host or cells: HeLa
T1 sequence (P10275 1-920): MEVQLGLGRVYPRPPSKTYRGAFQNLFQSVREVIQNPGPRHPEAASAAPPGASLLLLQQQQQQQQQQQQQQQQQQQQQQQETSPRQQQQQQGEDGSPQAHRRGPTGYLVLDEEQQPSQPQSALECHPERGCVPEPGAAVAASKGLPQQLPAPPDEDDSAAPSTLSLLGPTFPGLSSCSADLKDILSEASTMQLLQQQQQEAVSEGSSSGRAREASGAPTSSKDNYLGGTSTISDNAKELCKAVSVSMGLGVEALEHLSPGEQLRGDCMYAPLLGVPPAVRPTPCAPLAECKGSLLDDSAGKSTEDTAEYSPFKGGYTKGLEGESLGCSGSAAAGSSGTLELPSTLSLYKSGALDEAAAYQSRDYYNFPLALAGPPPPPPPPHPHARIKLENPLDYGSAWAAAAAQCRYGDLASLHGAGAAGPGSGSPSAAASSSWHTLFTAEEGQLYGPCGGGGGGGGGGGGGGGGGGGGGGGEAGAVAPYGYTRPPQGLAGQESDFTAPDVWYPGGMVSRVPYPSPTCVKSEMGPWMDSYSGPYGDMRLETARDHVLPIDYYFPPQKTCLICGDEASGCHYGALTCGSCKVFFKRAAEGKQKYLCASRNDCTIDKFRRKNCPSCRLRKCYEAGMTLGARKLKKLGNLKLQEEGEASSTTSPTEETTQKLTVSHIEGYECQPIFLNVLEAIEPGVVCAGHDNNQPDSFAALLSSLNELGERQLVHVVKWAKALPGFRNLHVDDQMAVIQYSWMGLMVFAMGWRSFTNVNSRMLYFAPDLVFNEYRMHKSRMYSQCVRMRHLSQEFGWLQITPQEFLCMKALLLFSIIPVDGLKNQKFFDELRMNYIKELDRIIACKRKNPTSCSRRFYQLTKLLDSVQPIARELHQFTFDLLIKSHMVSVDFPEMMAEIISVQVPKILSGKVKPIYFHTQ
Method: (§1) The capacity of HQ extract to activate other steroid receptors, namely AR, PR, GR, ERα and ERβ was examined. […] The (ARE)2-Luc plasmid consist of two repeats of Androgen Response Element (ARE) cloned upstream of the Luciferase Reporter gene in a pGL3-Basic vector (Promega).
(§2) AR, PR, GR and ERα and […] were determined by comparing luciferase activity in test cells with control cells exposed to vehicle (i.e., ethanol or methanol) only, analogous to the determination of PPAR activity as described in the previous examples.

Progesterone Receptor = target: T2, Progesterone Receptor (Homo sapiens, UniProt P06401); experiment: PR (ARE)2-Luc luciferase reporter gene assay; format: cell-based
T2 construct: expressed in transfected cells; host or cells: HeLa (named for the formononetin and daidzein experiments)
T2 sequence (P06401 1-933): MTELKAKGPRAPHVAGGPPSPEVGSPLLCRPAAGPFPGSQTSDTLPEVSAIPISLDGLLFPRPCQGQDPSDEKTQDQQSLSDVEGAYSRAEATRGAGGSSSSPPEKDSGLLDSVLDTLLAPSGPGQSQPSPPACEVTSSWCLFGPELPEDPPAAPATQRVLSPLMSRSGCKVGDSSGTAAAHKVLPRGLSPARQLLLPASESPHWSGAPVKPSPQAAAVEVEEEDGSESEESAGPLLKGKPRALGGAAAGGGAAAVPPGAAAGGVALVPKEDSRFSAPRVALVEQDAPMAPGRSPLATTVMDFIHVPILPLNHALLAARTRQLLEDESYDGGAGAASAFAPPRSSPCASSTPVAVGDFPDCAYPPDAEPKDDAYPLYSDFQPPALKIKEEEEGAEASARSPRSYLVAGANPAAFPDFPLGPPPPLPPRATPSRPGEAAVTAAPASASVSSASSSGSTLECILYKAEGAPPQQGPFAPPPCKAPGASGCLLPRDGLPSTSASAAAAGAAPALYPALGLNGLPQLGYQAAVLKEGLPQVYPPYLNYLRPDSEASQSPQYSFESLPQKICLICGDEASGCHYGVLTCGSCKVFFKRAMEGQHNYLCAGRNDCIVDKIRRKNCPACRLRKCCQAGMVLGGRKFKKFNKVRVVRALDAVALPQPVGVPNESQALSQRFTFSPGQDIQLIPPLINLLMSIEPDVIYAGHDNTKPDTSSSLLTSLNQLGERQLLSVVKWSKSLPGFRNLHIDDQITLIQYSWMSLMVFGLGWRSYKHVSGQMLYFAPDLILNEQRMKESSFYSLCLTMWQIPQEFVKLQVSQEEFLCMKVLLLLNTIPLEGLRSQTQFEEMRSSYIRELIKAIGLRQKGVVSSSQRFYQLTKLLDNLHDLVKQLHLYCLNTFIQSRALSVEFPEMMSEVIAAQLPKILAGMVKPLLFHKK
Method: as §1, §2

Luciferase activity (Fold over vehicle ± SE) AR/Dihydrotestosterone (1 × 10^−9M) (human androgen receptor; calycosin 3 ×10^−6 g/mL) [Fold] | Luciferase activity (Fold over vehicle ± SE) AR/Dihydrotestosterone (1 × 10^−9M) (human androgen receptor; calycosin 10 ×10^−6 g/mL) [Fold] | Luciferase activity (Fold over vehicle ± SE) AR/Dihydrotestosterone (1 × 10^−9M) (human androgen receptor; calycosin 30 ×10^−6 g/mL) [Fold] | increase of the activity of maximal doses of AR agonist (human androgen receptor; with dihydrotestosterone 1×10^−9M) [fold] | Luciferase activity (Fold over vehicle ± SE) PR/Progesterone (10 × 10^−6M) (Progesterone Receptor; calycosin 3 ×10^−6 g/mL) [Fold] | Luciferase activity (Fold over vehicle ± SE) PR/Progesterone (10 × 10^−6M) (Progesterone Receptor; calycosin 10 ×10^−6 g/mL) [Fold] | Luciferase activity (Fold over vehicle ± SE) PR/Progesterone (10 × 10^−6M) (Progesterone Receptor; calycosin 30 ×10^−6 g/mL) [Fold] | increase of the activity of maximal doses of PR agonist (Progesterone Receptor; with progesterone 10×10^−6M) [fold] | Luciferase activity (Fold over vehicle ± SE) AR/Dihydrotestosterone (1 × 10^−9M) (human androgen receptor; daidzein 5 ×10^−6 g/mL) [Fold] | Luciferase activity (Fold over vehicle ± SE) AR/Dihydrotestosterone (1 × 10^−9M) (human androgen receptor; daidzein 10 ×10^−6 g/mL) [Fold] | Luciferase activity (Fold over vehicle ± SE) AR/Dihydrotestosterone (1 × 10^−9M) (human androgen receptor; daidzein 20 ×10^−6 g/mL) [Fold] | Luciferase activity (Fold over vehicle ± SE) PR/Progesterone (10 × 10^−9M) (Progesterone Receptor; daidzein 5 ×10^−6 g/mL) [Fold] | Luciferase activity (Fold over vehicle ± SE) PR/Progesterone (10 × 10^−9M) (Progesterone Receptor; daidzein 10 ×10^−6 g/mL) [Fold] | Luciferase activity (Fold over vehicle ± SE) PR/Progesterone (10 × 10^−9M) (Progesterone Receptor; daidzein 20 ×10^−6 g/mL) [Fold] | SMILES
1997 ± 96.1 | 4080 ± 5.67 | 4502 ± 995 | 5.8 | 1077 ± 43.4 | 943 ± 44.0 | 837 ± 115 | 1.8 |  |  |  |  |  |  | COc1ccc(-c2coc3cc(O)ccc3c2=O)cc1O [calycosin, 3′,7-Dihydroxy-4′-methoxyisoflavone]
 |  |  |  |  |  |  |  | 1703 ± 154 | 1684 ± 146 | 1547 ± 257 | 569 ± 84.0 | 607 ± 90.6 | 326 ± 65.8 | O=c1c(-c2ccc(O)cc2)coc2cc(O)ccc12 [daidzein]
